{"source": "ChEMBL document CHEMBL5380873", "about": "“Discovery of Potent Tetrazole Free Fatty Acid Receptor 2 Antagonists” (J Med Chem, 2023)", "key": {"[1]": {"test": "Chemical stability of compound in PBS buffer at pH 7.4 measured after 10 days by HPLC analysis", "type": "physicochemical", "conditions": "time 10 day, read-out: Stability"}, "[2]": {"target": "T1, Free fatty acid receptor 3 (Homo sapiens) (UniProt O14843)", "T1 sequence (whole entry)": "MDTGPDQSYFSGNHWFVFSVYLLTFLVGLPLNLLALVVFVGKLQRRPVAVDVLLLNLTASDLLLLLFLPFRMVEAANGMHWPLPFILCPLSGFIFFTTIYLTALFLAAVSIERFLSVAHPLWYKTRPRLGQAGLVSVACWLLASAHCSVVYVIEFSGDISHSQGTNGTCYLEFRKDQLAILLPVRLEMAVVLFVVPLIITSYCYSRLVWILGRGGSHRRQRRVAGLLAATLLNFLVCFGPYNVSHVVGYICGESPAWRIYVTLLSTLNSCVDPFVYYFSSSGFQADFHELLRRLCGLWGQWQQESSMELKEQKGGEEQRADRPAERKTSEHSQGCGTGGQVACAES", "test": "Antagonist activity at human FFA3 expressed in Flp-In-T-REx-293 cells co-expressing eYFP assessed as inhibition of propionate-induced cAMP accumulation at 10 uM preincubated with compound for 20 mins followed by propionate addition and measured after 25 mins in the presence of forskolin by TR-FRET analysis", "type": "functional, cell-based", "conditions": "time 45.0 min"}, "Neutrophil [3]": {"tested_on": "Neutrophil", "test": "Inhibition of propionate-induced cell migration in human peripheral neutrophil at 0.4 to 1 uM preincubated with compound for 30 mins followed by propionate addition and measured after 1 hrs by ATPlite luminescence assay", "type": "functional, cell-based", "conditions": "dose 0.4-1 µM, time 90.0 min"}, "Neutrophil [4]": {"tested_on": "Neutrophil", "test": "(§1) Inhibition of propionate-induced respiratory burst in human peripheral neutrophil assessed as effect on luminol-induced chemiluminescence at 0.4 to 1 uM preincubated with compound for 30 mins followed by propionate addition and measured immediately by microplate reader based analysis", "type": "functional, cell-based", "conditions": "dose 0.4-1 µM"}, "Neutrophil [5]": {"tested_on": "Neutrophil", "test": "Inhibition of fMLP-induced cell migration in human peripheral neutrophil at 10 uM", "type": "functional, cell-based"}, "Neutrophil [6]": {"tested_on": "Neutrophil", "test": "Inhibition of fMLP-induced respiratory burst in human peripheral neutrophil at 10 uM", "type": "functional, cell-based"}, "[7]": {"test": "as §1, with “luminol-amplifies” for “luminol-induced”, “chemiluminescence by measuring fold change” for “chemiluminescence”, “analysis relative to CATPB” for “analysis”", "type": "functional", "conditions": "dose 0.4-1 µM, 0.5 h"}, "[8]": {"target": "T2, Free fatty acid receptor 2 (Homo sapiens, UniProt O15552)", "T2 sequence (O15552 whole entry)": "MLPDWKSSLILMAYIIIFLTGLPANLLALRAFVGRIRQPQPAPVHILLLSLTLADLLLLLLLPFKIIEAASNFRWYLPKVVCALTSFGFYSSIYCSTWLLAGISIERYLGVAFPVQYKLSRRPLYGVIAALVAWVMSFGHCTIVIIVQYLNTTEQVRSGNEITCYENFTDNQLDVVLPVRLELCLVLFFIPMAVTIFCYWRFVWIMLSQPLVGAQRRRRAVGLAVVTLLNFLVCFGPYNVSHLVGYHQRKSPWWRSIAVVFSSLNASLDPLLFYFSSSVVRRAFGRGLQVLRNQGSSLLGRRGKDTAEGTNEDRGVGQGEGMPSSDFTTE", "test": "Inverse agonist activity at human GPR43 expressed in Glosensor cells assessed as increase in forskolin-induced cAMP level preincubated with compound for 5 mins followed by forskolin addition and measured after 15 mins by luminescence based analysis", "type": "functional, cell-based"}, "[9]": {"target": "T3, Free fatty acid receptor 2 (Homo sapiens) (UniProt O15552)", "T3 sequence (whole entry)": "T2 sequence (O15552 whole entry)", "test": "Potency index, ratio of CATPB pIC50 to test compound pIC50 for antagonist activity at human FFA2"}, "[10]": {"target": "T2, Free fatty acid receptor 2", "test": "(§2) Antagonist activity at human FFA2 expressed in Flp-In-T-REx-293 cells co-expressing eYFP assessed as inhibition of [35S]GTPgammaS incorporation preincubated for 15 mins followed by [35S]GTPgammaS addition and measured after 60 min by liquid scintillation spectroscopic analysis", "type": "functional, cell-based"}, "[11]": {"target": "T2, Free fatty acid receptor 2", "test": "(§3) Antagonist activity at human FFA2 expressed in Flp-In-T-REx-293 cells co-expressing eYFP assessed as inhibition of propionate-induced cAMP accumulation preincubated with compound for 20 mins followed by propionate addition and measured after 25 mins in the presence of forskolin by TR-FRET analysis", "type": "functional, cell-based"}, "[12]": {"target": "T3, Free fatty acid receptor 2 (Homo sapiens)", "test": "as §2", "type": "functional, cell-based", "conditions": "time 75.0 min"}, "[13]": {"target": "T3, Free fatty acid receptor 2 (Homo sapiens)", "test": "as §3", "type": "functional, cell-based", "conditions": "time 45.0 min"}}, "note": "Activity calls are given as the source filed them. The rule behind the calls is not given here.", "data": [{"smiles": "COc1cccc(CC(=O)N[C@@H](Cc2ccc(C(F)(F)F)cc2)Cc2nnn[nH]2)c1", "values": [{"measurement": "remaining at 240 h", "setting": "[1]", "result": "> 95", "unit": "%"}, {"measurement": "Activity", "setting": "[2]", "result": "inactive"}, {"measurement": "inhibition", "setting": "Neutrophil [3]", "result": "Active"}, {"measurement": "inhibition", "setting": "Neutrophil [4]", "result": "Active"}, {"measurement": "inhibition", "setting": "Neutrophil [5]", "result": "inactive"}, {"measurement": "inhibition", "setting": "Neutrophil [6]", "result": "inactive"}, {"measurement": "fold change (FC)", "setting": "[7]", "result": 8}]}, {"smiles": "CC1=C(C(=O)Nc2cc(C)cc(C)c2)C(c2ccc(N(C)C)cc2)NC(=O)N1", "note": "(stereo unspecified)", "values": [{"measurement": "IC50", "setting": "[8]", "result": "~10", "unit": "µM"}]}, {"smiles": "O=C(Cc1cncc(Br)c1)N[C@@H](Cc1ccc(C(F)(F)F)cc1)Cc1nnn[nH]1", "values": [{"measurement": "remaining at 240 h", "setting": "[1]", "result": "> 95", "unit": "%"}]}, {"smiles": "Cc1cccc(CC(=O)N[C@@H](Cc2ccc(C(F)(F)F)cc2)Cc2nnn[nH]2)c1", "values": [{"measurement": "Ratio pIC50", "setting": "[9]", "result": "> 10"}]}, {"smiles": "N#Cc1cccc(CC(=O)N[C@@H](Cc2ccc(C(F)(F)F)cc2)Cc2nnn[nH]2)c1", "values": [{"measurement": "pIC50", "setting": "[10]", "result": "> 5"}, {"measurement": "pIC50", "setting": "[11]", "result": "> 5"}]}, {"smiles": "O=C(Cc1cnc[nH]1)N[C@@H](Cc1ccc(C(F)(F)F)cc1)Cc1nnn[nH]1", "values": [{"measurement": "Activity", "setting": "[12]", "result": "inactive"}, {"measurement": "Activity", "setting": "[13]", "result": "inactive"}]}, {"smiles": "O=C(Cc1cccc(-c2nnn[nH]2)c1)N[C@@H](Cc1ccc(C(F)(F)F)cc1)Cc1nnn[nH]1", "values": [{"measurement": "Activity", "setting": "[12]", "result": "inactive"}, {"measurement": "Activity", "setting": "[13]", "result": "inactive"}]}]}
